The values below come from PMC10992699, “Comparative structure activity and target exploration of 1,2-diphenylethynes in Haemonchus contortus and Caenorhabditis elegans” (International Journal for Parasitology: Drugs and Drug …, 2024).

Usually IC50 stands for the concentration that gives 50% inhibition.

The subject of one data set is C. elegans young adults. As to the kind of experiment: C. elegans young adult motility dose-response assay. The note with it: Caenorhabditis elegans, 40 h, young adults; 40 h incubation; three independent assays in triplicate; read-out: Worm motility IC50 ± SD, C. elegans young adults. The format is cell-based, Caenorhabditis elegans. Here is the method:
The eggs were then washed five times with 15 mL of sterile M9 buffer (centrifugation at 500×g, 2 min). […] were collected from plates and washed twice with sterile M9 buffer by centrifugation (500×g, 2 min) to remove E. coli OP50, and then resuspended to a concentration of 100 larvae per 50 μL in sterile (autoclaved) LB*. The dose-response assay for C. elegans followed a well-established protocol ([Taki et al., 2021a]) and was employed to evaluate the potency of hit compounds against this nematode. […] Two compounds, monepantel (ZolvixTM; Elanco, Australia) and moxidectin ([…], France) were used as positive controls and prepared in the same manner as the test compounds. […] The test compounds and positive control compounds were arrayed in triplicate across individual flat-bottom 96-well microplates (cat. no. 3596; Corning, Corning, NY, USA), with six wells on each plate containing the negative control. Added to each well were 100 C. elegans in 50 μL of LB* to give a final volume of 100 μL. Plates were then placed in an incubator ([…], model no. IMP180, Thermo Fisher Scientific, USA) at 20 °C for 40 h. […] Over 15 min, disturbance of an infrared beam in individual wells was recorded as an 'activity count'. Raw 'activity counts' for each well were normalised to the negative controls. The compound concentrations were log10-transformed and fitted using a variable slope four-parameter equation, using the ordinary least squares fit model, employing the program Prism (v.9.1.0 GraphPad Software, San Diego, CA, USA).

For the next data set, the target named is T1, TRXR-1 (Caenorhabditis elegans, UniProt Q17745).
T1 construct: from tissue; host or cells: whole-worm lysate of C. elegans N2 (young adults / L4s)
T1 sequence (Q17745 whole entry): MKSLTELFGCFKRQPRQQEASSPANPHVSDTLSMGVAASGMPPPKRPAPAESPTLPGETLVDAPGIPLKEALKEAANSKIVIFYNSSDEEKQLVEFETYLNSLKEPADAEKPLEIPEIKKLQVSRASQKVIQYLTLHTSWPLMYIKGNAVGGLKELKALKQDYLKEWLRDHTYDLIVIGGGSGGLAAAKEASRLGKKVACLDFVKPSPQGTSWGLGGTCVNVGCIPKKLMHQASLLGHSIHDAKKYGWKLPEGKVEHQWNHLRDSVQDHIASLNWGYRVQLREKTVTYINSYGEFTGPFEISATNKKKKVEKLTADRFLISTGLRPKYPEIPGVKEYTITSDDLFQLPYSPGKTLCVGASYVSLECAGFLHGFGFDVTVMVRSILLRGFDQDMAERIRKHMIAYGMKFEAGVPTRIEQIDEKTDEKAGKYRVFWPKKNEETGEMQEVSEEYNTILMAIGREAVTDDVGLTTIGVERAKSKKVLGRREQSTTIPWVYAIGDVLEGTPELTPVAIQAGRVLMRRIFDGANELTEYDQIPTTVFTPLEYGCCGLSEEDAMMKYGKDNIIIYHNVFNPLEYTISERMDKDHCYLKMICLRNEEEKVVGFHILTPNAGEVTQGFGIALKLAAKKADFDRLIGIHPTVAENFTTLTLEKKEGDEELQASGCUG
Briefly: Thermal proteome profiling (TPP). The format is binding. As to conditions: compound 50 μM, C. elegans lysate, 37-67 °C.

The subject of data set [1] is human hepatoma (HepG2) cells. Briefly: HepG2 mitotoxicity (galactose medium, crystal violet staining). The note with it: 48 h. The format is cell-based. Here is the method:
The mitotoxicity of UMW-9729 and six key derivatives (12, 14, 15, 16, 18 and 25) on human hepatoma (HepG2) cells was evaluated as described previously using an established protocol ([Swiss and Will, 2011]; [Kamalian et al., 2015]; [Śliwka et al., 2016]). Test compounds were serially-diluted (7-points, 2-fold serial dilution, 50 μM top concentration) in DMEM (Thermo Fisher Scientific, USA) with GlutaMax™ supplemented with 25 mM D-galactose, 10 % heat-inactivated FBS, 100 IU/mL of penicillin, 100 μg/mL of streptomycin and 0.25 μg/mL of amphotericin B (denoted DMEM*). Monepantel and moxidectin (prepared in the same manner as the test compounds) were included as reference compounds. M-666 ([…]; [Le et al., 2018]) was used as a positive control; 0.25 % DMSO was used as a negative control. HepG2 cells were seeded into wells of a 96-well plate in 80 μL of DMEM* (at 1 × 10^5 cells per well) and allowed to adhere for 16 h (5 % (v/v) CO2, 37 °C, >90% humidity)prior to incubation with individual compounds, at a final volume of 100 μL. […] Following 48 h of incubation with compounds, cell viability was determined by crystal violet staining ([Śliwka et al., 2016]). The absorbance (595 nm) of treated cells was normalised using the negative-controls to calculate the cell viability. […]

Data set [2] relates to adult females of Haemonchus contortus. Briefly: Motility of adult female H. contortus in vitro. The format is cell-based. The note with it: 40 μM; 24 h of incubation; normalised to negative control. The method, then: Adult H. contortus were collected from the abomasa of sheep infected for 10 weeks, washed extensively with phosphate-buffered saline (PBS, pH 7.4) and subsequently in RPMI 1640 media supplemented with final concentrations of 2 mM L-glutamine, 100 IU/mL of penicillin, 100 μg/mL of streptomycin and 0.25 μg/mL of amphotericin B (Thermo Fisher Scientific, Scoresby, VIC, Australia; this supplemented RPMI was designated RPMI*). Female and male worms were collected and separated immediately prior to compound testing.
The activity of UMW-9729 and six derivatives (12, 14, 15, 16, 18 and 25) was assessed on adult female specimens of H. contortus in an established assay ([Taki et al., 2020]). The compound was added in triplicate to the wells of a 24-well plate (cat. no. 3524; Corning, USA) at a concentration of 40 μM in 500 μL of RPMI* (RPMI supplemented with final concentrations of 2 mM L-glutamine, 100 IU/mL of penicillin, 100 μg/mL of streptomycin and 0.25 μg/mL of amphotericin B; Thermo Fisher Scientific, Scoresby, VIC, Australia). Two positive-control compounds, monepantel and moxidectin, and a negative control containing 1 % (v/v) DMSO only, were included in triplicates on the same plate. Three adult females were added to each of the triplicate wells containing either the test compound or the controls and placed in a CO2 incubator (10 % (v/v) CO2, 40 °C, >90 % relative humidity) for 1 day. A video recording (30 s) of each well was taken at 3 h, 6 h, 12 h and 24 h during the total incubation period to assess the reduction in worm motility, which was scored as 3 (“good”), 2 (“low”), 1 (“very low”) or 0 (“no movement”; cf. [Taki et al., 2020]). For each test or control compound, the motility scores for each of the triplicate wells were calculated, normalised with reference to the negative control (100 % motility) and recorded as a percentage.

The target in another data set is T2, UBL-5 (Caenorhabditis elegans, UniProt P91302).
T2 construct: from tissue; host or cells: whole-worm lysate of C. elegans N2 (young adults / L4s)
T2 sequence (P91302 whole entry): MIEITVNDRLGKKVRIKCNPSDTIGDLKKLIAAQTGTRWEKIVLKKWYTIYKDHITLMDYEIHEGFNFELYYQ
Briefly: Thermal proteome profiling (TPP). The format is binding. The note with it: compound 50 μM, C. elegans lysate, 37-67 °C.

Take `C(#Cc1ccc(-c2ccn[nH]2)cc1)c1ccccc1` [UMW-9729]: the IC50 with C. elegans young adults is 14 ± 2.9 µM. The F-statistic was found to be 20.2 on TRXR-1 (NPARC) and 34.8 on UBL-5 (NPARC). Moreover, the “thermal stability of protein in the presence of compound” value at TRXR-1 and at UBL-5 was “stabilised” each time. For the same molecule, the “half-maximal mitotoxic concentration (MC50)” value in data set [1] was greater than 40 µM. In addition, the “reduction of worm motility, adult females of H. contortus” value in data set [2] was “did not”.
